Activity calls are given as the source filed them. The rule behind the calls is not given here.

One experiment in a line: inhibitor activity on non-replicating M. tuberculosis, dose response, plate reader, dry powder (AID 743175). Conditions: Mycobacterium tuberculosis non-replicating, growth inhibition plate reader; at 23.5 µM (top of the series).
For `COCCNC(=O)C[C@@H]1C[C@@H]2c3cc(NC(=O)Nc4ccc(C(F)(F)F)cc4)ccc3O[C@@H]2[C@H](CO)O1`, the activity change, negative = inhibition was 6.32% (inactive).

In the case of `O=C(C[C@@H]1C=C[C@@H](NC(=O)Nc2cc(F)ccc2F)[C@@H](CO)O1)NCc1ccc2c(c1)OCO2`, the activity change, negative = inhibition is 2.62% (inactive).

Regarding `O=C(C[C@@H]1C=C[C@H](NC(=O)Nc2cc(F)ccc2F)[C@H](CO)O1)NCc1ccc2c(c1)OCO2`, the activity change, negative = inhibition was -1.22% (inactive).

`C[C@H](C(=O)N(C)C[C@@H]1OCc2ccccc2-c2ccccc2C(=O)N([C@H](C)CO)C[C@H]1C)c1ccccc1`: the activity change, negative = inhibition was -2.02% (inactive).

On to `Cc1noc(C)c1NC(=O)Nc1ccc2c(c1)C(=O)N(C)[C@H]1CC[C@@H](CC(=O)NCc3ccc(Cl)cc3)O[C@@H]1CO2`, for which the activity change, negative = inhibition is -7.13% (inactive).

The same experiment, now with this note: Mycobacterium tuberculosis non-replicating, growth inhibition plate reader; at 26 µM (top of the series).
Turning to `CNC[C@H]1OCCCC[C@H](C)Oc2ccc(NC(=O)CCCN(C)C)cc2C(=O)N([C@@H](C)CO)C[C@@H]1C`, the activity change, negative = inhibition was -0.478% (inactive).

Regarding `COCCNC(=O)C[C@@H]1C[C@H]2c3cc(NC(=O)Nc4ccc(C(F)(F)F)cc4)ccc3O[C@H]2[C@@H](CO)O1`, the activity change, negative = inhibition is 2.69% (inactive).

For `COCCNC(=O)C[C@H]1C[C@H]2c3cc(NC(=O)Nc4ccc(C(F)(F)F)cc4)ccc3O[C@H]2[C@H](CO)O1`, the activity change, negative = inhibition was 5.95% (inactive).

Turning to `C[C@H](C(=O)N(C)C[C@@H]1OCc2ccccc2-c2ccccc2C(=O)N([C@@H](C)CO)C[C@@H]1C)c1ccccc1`, the activity change, negative = inhibition was -3.21% (inactive).

As for `C[C@@H]1CN([C@H](C)CO)C(=O)c2ccccc2-c2ccccc2CO[C@H]1CN(C)C(=O)[C@H](C)c1ccccc1`, the activity change, negative = inhibition was 3.43% (inactive).

With `C[C@@H]1CN([C@@H](C)CO)C(=O)c2ccccc2-c2ccccc2CO[C@@H]1CN(C)C(=O)[C@H](C)c1ccccc1`, the activity change, negative = inhibition is 5.94% (inactive).

`C[C@H](C(=O)N(C)C[C@H]1OCc2ccccc2-c2ccccc2C(=O)N([C@@H](C)CO)C[C@H]1C)c1ccccc1`: the activity change, negative = inhibition was -0.472% (inactive).

In the case of `C[C@H](C(=O)N(C)C[C@H]1OCc2ccccc2-c2ccccc2C(=O)N([C@H](C)CO)C[C@@H]1C)c1ccccc1`, the activity change, negative = inhibition was -6.85% (inactive).

Take `COCCNC(=O)C[C@@H]1C[C@H]2c3cc(NC(=O)Nc4ccc(C(F)(F)F)cc4)ccc3O[C@H]2[C@H](CO)O1`: the activity change, negative = inhibition is -6% (inactive).

Take `O=C(C[C@@H]1C=C[C@@H](NC(=O)Nc2cc(F)ccc2F)[C@H](CO)O1)NCc1ccc2c(c1)OCO2`: the activity change, negative = inhibition is -1.51% (inactive).

Regarding `COCCNC(=O)C[C@H]1C[C@@H]2c3cc(NC(=O)Nc4ccc(C(F)(F)F)cc4)ccc3O[C@@H]2[C@@H](CO)O1`, the activity change, negative = inhibition is -5.53% (inactive).

Regarding `O=C(C[C@@H]1C[C@@H]2c3cc(NC(=O)c4cccnc4)ccc3O[C@@H]2[C@H](CO)O1)NCC(F)(F)F`, the activity change, negative = inhibition was -0.328% (inactive).

As for `O=C(C[C@H]1C[C@@H]2c3cc(NC(=O)c4cccnc4)ccc3O[C@@H]2[C@@H](CO)O1)NCC(F)(F)F`, the activity change, negative = inhibition was 2.49% (inactive).

For `C[C@H](CO)N1C[C@H](C)[C@H](CN(C)C(=O)[C@H](C)c2ccccc2)OCc2ccccc2-c2ccccc2C1=O`, the activity change, negative = inhibition is -5.31% (inactive).

Turning to `COCCNC(=O)C[C@H]1C[C@@H]2c3cc(NC(=O)Nc4ccc(C(F)(F)F)cc4)ccc3O[C@@H]2[C@H](CO)O1`, the activity change, negative = inhibition is -0.81% (inactive).

For the compound `C[C@H](C(=O)N(C)C[C@@H]1OCc2ccccc2-c2ccccc2C(=O)N([C@H](C)CO)C[C@@H]1C)c1ccccc1`, the activity change, negative = inhibition was -7.59% (inactive).

For `C[C@H](CO)N1C[C@H](C)[C@@H](CN(C)C(=O)[C@H](C)c2ccccc2)OCc2ccccc2-c2ccccc2C1=O`, the activity change, negative = inhibition is 4.38% (inactive).

As for `Cc1noc(C)c1NC(=O)Nc1ccc2c(c1)C(=O)N(C)[C@H]1CC[C@@H](CC(=O)NCc3ccc(Cl)cc3)O[C@H]1CO2`, the activity change, negative = inhibition is 0.473% (inactive).

Regarding `O=C(C[C@@H]1C=C[C@H](NC(=O)Nc2cc(F)ccc2F)[C@@H](CO)O1)NCc1ccc2c(c1)OCO2`, the activity change, negative = inhibition is -6.79% (inactive).

For the compound `CNC[C@H]1OCCCC[C@H](C)Oc2ccc(NC(=O)CCCN(C)C)cc2C(=O)N([C@H](C)CO)C[C@@H]1C`, the activity change, negative = inhibition is 0.293% (inactive).

In the case of `C[C@@H](C(=O)N(C)C[C@@H]1OCc2ccccc2-c2ccccc2C(=O)N([C@@H](C)CO)C[C@@H]1C)c1ccccc1`, the activity change, negative = inhibition was 3.38% (inactive).

In the case of `CNC[C@@H]1OCCCC[C@@H](C)Oc2ccc(NC(=O)CCCN(C)C)cc2C(=O)N([C@@H](C)CO)C[C@H]1C`, the activity change, negative = inhibition was 6.36% (inactive).

Consider `COCCNC(=O)C[C@@H]1C[C@@H]2c3cc(NC(=O)Nc4ccc(C(F)(F)F)cc4)ccc3O[C@@H]2[C@@H](CO)O1`, for which the activity change, negative = inhibition is 9.37% (inactive).

`O=C(C[C@H]1C=C[C@@H](NC(=O)Nc2cc(F)ccc2F)[C@@H](CO)O1)NCc1ccc2c(c1)OCO2`: the activity change, negative = inhibition is 4.07% (inactive).

With `C[C@H](C(=O)N(C)C[C@@H]1OCc2ccccc2-c2ccccc2C(=O)N([C@@H](C)CO)C[C@H]1C)c1ccccc1`, the activity change, negative = inhibition was 1.76% (inactive).

Take `O=C(C[C@H]1C=C[C@@H](NC(=O)Nc2cc(F)ccc2F)[C@H](CO)O1)NCc1ccc2c(c1)OCO2`: the activity change, negative = inhibition is -2.19% (inactive).

Regarding `O=C(C[C@H]1C=C[C@H](NC(=O)Nc2cc(F)ccc2F)[C@@H](CO)O1)NCc1ccc2c(c1)OCO2`, the activity change, negative = inhibition is -6.29% (inactive).

Regarding `O=C(C[C@H]1C=C[C@H](NC(=O)Nc2cc(F)ccc2F)[C@H](CO)O1)NCc1ccc2c(c1)OCO2`, the activity change, negative = inhibition was 2.59% (inactive).

On to `C[C@@H](C(=O)N(C)C[C@H]1OCc2ccccc2-c2ccccc2C(=O)N([C@@H](C)CO)C[C@@H]1C)c1ccccc1`, for which the activity change, negative = inhibition is -10.5% (inactive).

Consider `COCCNC(=O)C[C@H]1C[C@H]2c3cc(NC(=O)Nc4ccc(C(F)(F)F)cc4)ccc3O[C@H]2[C@@H](CO)O1`, for which the activity change, negative = inhibition was 6.87% (inactive).

The same experiment, now with this note: Mycobacterium tuberculosis non-replicating, growth inhibition plate reader; at 38 µM (top of the series).
For `Fc1ccc(-c2ccc(CNCc3ccccn3)o2)cc1Cl`, the activity change, negative = inhibition is -52% (inactive).

As for `C=CCn1c(NC(=O)c2ccccc2)nc2ccccc21`, the activity change, negative = inhibition is -76.7% (inactive).

`CC(=O)c1ccc(NC(=O)c2cc(CC(C)C)on2)cc1`: the activity change, negative = inhibition was -14.7% (inactive).

Regarding `CCCC(C)C(=O)Nc1ccc(Cl)cn1` (stereo not drawn), the activity change, negative = inhibition is -14.4% (inactive).

With `O=C(OCCCCN1C(=O)c2ccccc2C1=O)c1ccc(Br)o1`, the activity change, negative = inhibition is -2.9% (inactive).

As for `O=C(OCc1ccc(Cl)c(Cl)c1)c1ccccn1`, the activity change, negative = inhibition was -7.55% (inactive).

For the compound `CCOC(=O)c1c(C)n(C)c2ccc(OC(C)C(=O)OC)cc12` (stereo not drawn), the activity change, negative = inhibition is -6.52% (inactive).

Regarding `CCCOC(=O)c1ccc(NC(=O)c2ccc(Br)o2)cc1`, the activity change, negative = inhibition was -12.8% (inactive).

Values taken from PubChem BioAssay AID743175 (Broad Institute, 2013).
